Data from PMC12147183, “Lacritin cleavage-potentiated targeting of iron - respiratory reciprocity promotes bacterial death” (The Journal of Biological Chemistry, 2025).
“Also recorded” adds a separate entry of the source. Peptide text beside a SMILES is read from it. * marks the point of attachment. FITC = O=C1OC2(c3ccc(O)cc3Oc3cc(O)ccc32)c2ccc(NC(=S)*)cc21; Ahx = NCCCCCC(=O)O

Legend:
P. aeruginosa PA14 [1] = experiment: Imaging flow cytometry of peptide entry; assay type: cell-based, Pseudomonas aeruginosa; conditions: 100 or 10 μM, PA14 10^6 cfu/ml, 1 h at 35 °C, trypsin EDTA to remove surface peptide, no ethanol, n = 3
Description: 0.5 ml of 10^6 cfu/ml PA14 cells in 1 mM Na2HPO4, 0.18 mM KH2PO4, 0.27 mM KCl, and 13.7 mM NaCl (pH 7.2) were incubated for 1 h at 35 °C with 10 or 100 μM FITC-N-104 (without, or as a positive control with 70% ethanol) or with the negative control FITC-C-95. Cells were subsequently washed in the same buffer, pelleted, treated with 100 μl of 0.25% trypsin EDTA (Gibco, 25200-056) for 5 min at 35 °C to remove surface-attached peptide, further washed and pelleted, resuspended in 100 μl of the same buffer for fixation with an equal volume of 8% formaldehyde (18,814, Polysciences Inc) and then imaged using an Amnis Imagestream X Mark II imaging flow cytometer. 500 to 1000 counts were analyzed per replicate. To ensure the exclusion of debris and out-of-focus cells, Gradient-RMS (average slope spanning three pixels in an image; 0–100) versus Area (number of pixels in an image reported in square microns; 1–200) of channel one was plotted for each experiment with more than 85% of the data falling within the cells-in-focus gate. The fluorescence intensity values of FITC-positive cells (Intensity-MC, channel 2) were analyzed using the IDEAS version 6.2 program (Amnis, Seattle WA) and plotted as histograms with a bin number of 100. FITC-positive cells were selected based on histograms generated from the positive control sample.

[2] = for solubility in common solvents: water, DMSO, methanol, isopropanol, acetonitrile
Excerpt: Guided by TMHMM v 2 and DeepTMHMM 1.0.24, we synthesized peptides corresponding to PotH’s predicted outer loops 2 ([…]) and outer loop 3 ([…]). Fifty-three amino acid PotH's OL1 was not synthesized with predicted poor solubility. We also synthesized peptides corresponding to FeoB's predicted outer loop 1 ([…]), outer loop 2 ([…]), outer loop 3 ([…]), and outer loop 5 (ATFAA). […] For these, all amino and carboxy termini were acetylated and amidated, respectively (Supporting Information Reagents Table). All synthesized peptides were aliquoted and stored lyophilized at −80 °C in a dry environment.

Fe^2+ uptake by PA14 = assay type: cell-based, Pseudomonas aeruginosa; conditions: 25 μM peptide, n = 3
Description: Iron depletion was induced in PA14 cells (5 × 10^9 cfu in 10 ml 10 mM Na2HPO4, 1.8 mM KH2PO4, 2.7 mM KCl, 137 mM NaCl (pH 7.2) by treatment with the chelator 1 mM 2,2′-bipyridyl at room temperature for 1 h. After washing twice with 0.9% NaCl, cells were suspended in 1 ml of 1 mM Na2HPO4, 0.18 mM KH2PO4, 0.27 mM KCl, 13.7 mM NaCl for treatment without or with 1, 10, 25, 50 or 100 μM of N-104 (or negative control N-80/C-25 or C-95) for 45 min at 35 °C, incubated at the same temperature for 15 min with 100 μM FeSO4 and 13 mM ascorbic acid, washed twice with 1 mM Na2HPO4, 0.18 mM KH2PO4, 0.27 mM KCl, and 13.7 mM NaCl, and pelleted at 12,000g. The ferrozine assay ([54]) was subsequently employed. Briefly, cells in pellets were lysed with 20 μl of 50 mM NaOH, partially neutralized with 20 μl of 10 mM HCl, subjected to iron release with 20 μl of acidified 0.29 M KMnO4 for 30 min at 80 °C, cooled to room temperature, incubated with 7 μl of 30 mM ferrozine, 1.1 μl of 180 mM neocuproine, 15 μl of 5 M ammonium acetate and 15 μl of 1 M ascorbic acid for 30 min at room temperature and then centrifuged at 21,000g for 10 min. Cellular iron uptake could then be assessed from the supernatant OD565. Single-molecule transport per cell was estimated using a standard curve.

[3] = system: ^14C-spermidine uptake by PA14; assay type: cell-based, Pseudomonas aeruginosa; conditions: 25 μM peptide, n = 6
Description: 100 μl aliquots (0.8 × 10^8 cfu) of PA14 cell cultures in 1 mM Na2HPO4, 0.18 mM KH2PO4, 0.27 mM KCl, 13.7 mM NaCl without or with 1, 10, 25, 50 or 100 μM N-104 (or N-80/C-25 or C-95) for 45 min at 35 °C were incubated with 1 μl of 10 mM [1,4-^14C]putrescine (0.1 mCi/ml; ARC-0245–250, American Radiolabeled Chemicals) or [1,4-^14C]spermidine (0.1 mCi/ml; ARC-3138–50, American Radiolabeled Chemicals) for 15 min at 35 °C. Cell pellets were washed four times with 100 μl of 10 mM Na2HPO4, 1.8 mM KH2PO4, 2.7 mM KCl, 137 mM NaCl (pH 7.2) and then transferred to 4 ml of scintillation fluid (1200.437, PerkinElmer OptiPhase HiSafe 3) for analysis in a Beckman Coulter LS6500. Also assessed was radioactivity from the last wash. Single-molecule transportation per cell was estimated using standard curves for each radiolabeled polyamine.

P. aeruginosa PA14 [4] = experiment: SYTOX Orange PA14 membrane disruption assay; conditions: 25 μM peptide, PA14 10^7 cfu/ml, 1 h at 35 °C, 5 μM SYTOX Orange; positive control 70% ethanol
P. aeruginosa PA14 [5] = experiment: PA14 viability (Alamar Blue, CFU) with exogenous polyamines; assay type: cell-based, Pseudomonas aeruginosa; conditions: Alamar Blue and CFU; for protection of PA14 against 5 μM N-104 killing: 5 to 50 μM exogenous polyamine, n = 3
wild-type E. coli K-12 = experiment: Alamar Blue viability assay of wild-type E. coli K-12; assay type: cell-based, Escherichia coli; conditions: 100 μM, wild-type E. coli K-12 10^6 cfu/ml, 37 °C, hourly, n = 3
P. aeruginosa PA14 [6] = conditions: 0-25 μM FITC-N-104 or 2-25 μM Janelia Fluor 549-tagged N-104, PA14 10^6 cfu/ml, 8 h
Description: After overnight incubation at 37 °C, plates were analyzed on a ChemiDoc XRS (Bio-Rad).

P. aeruginosa PA14 [7] = assay type: cell-based, Pseudomonas aeruginosa
Description: Janelia Fluor 549-N-104 and -C-95 (each 25 μg) in 20 μl of M9 minimal salts were incubated with ∼3.75 × 10^9 cfu of pelleted PA14 cells for 1 h at 35 °C, washed four times with filtered 10 mM Na2HPO4, 1.8 mM KH2PO4, 2.7 mM KCl, 137 mM NaCl (pH 7.2), and then treated with 5 μM SYTOX Green to assess membrane integrity. Stained cells (1 μl) were immobilized on coverslip supported 1.5% agarose pads for imaging on a custom-built inverted fluorescence microscope, using 1 W/cm^2 of 561-nm laser light (Genesis MX561 MTM, Coherent) to excite Janelia Fluor 549 Maleimide and 4 mW/cm^2 of 488-nm laser light (Coherent) to excite SYTOX Green. Emitted light collected using an oil immersion objective (PLSAPO, 60×, 1.4 NA) was passed through a filter set (zt440/488/561rpc, Chroma Technology) to block excitation light with separation of Janelia Fluor 549 Maleimide and SYTOX Green emission using a diochroic beam splitter (T5g0lpxr-uf3, Chroma Technology) as collected on separate sCMOS cameras (ORCA-Flash 4.0 V2, Hamamatsu Photonics). Brightfield images were collected to obtain the total number of cells in each field of view.

CC(C)C[C@H](NC(=O)[C@H](CCCCN)NC(=O)[C@H](CCC(N)=O)NC(=O)[C@H](C)NC(=O)CCCCCNC(=S)Nc1ccc2c(c1)C(=O)OC21c2ccc(O)cc2Oc2cc(O)ccc21)C(=O)N[C@@H](CC(C)C)C(=O)N[C@@H](CCCCN)C(=O)N[C@@H](CCCCN)C(=O)N[C@@H](Cc1ccccc1)C(=O)N[C@@H](CO)C(=O)N[C@@H](CC(C)C)C(=O)N[C@@H](CC(C)C)C(=O)N[C@@H](CCCCN)C(=O)N1CCC[C@H]1C(=O)N[C@@H](Cc1c[nH]c2ccccc12)C(=O)N[C@@H](C)C(=O)O [FITC-N-104] ({FITC-Ahx}-AQKLLKKFSLLKPWA-OH)
intracellular FITC fluorescence (P. aeruginosa PA14 [1]): substantial intracellular; also recorded: In contrast to FITC-C-95, substantial intracellular FITC-N-104 fluorescence was apparent at either 100 or 10 µM concentrations

CC[C@H](C)[C@H](NC(C)=O)C(=O)N[C@@H](CC(N)=O)C(=O)N[C@H](C(=O)NCC(=O)NCC(=O)N[C@@H](C)C(=O)N[C@@H](CC(C)C)C(=O)N[C@@H](CCC(N)=O)C(=O)N1CCC[C@H]1C(N)=O)[C@@H](C)CC [FeoB OL1 peptide] (Ac-INIGGALQP-NH2)
solvents in which solubility was identified [2]: formic or acetic acid
solubility in common solvents [2]: not water, DMSO, methanol, isopropanol or acetonitrile soluble

CC(=O)NCC(=O)N[C@@H](C)C(=O)N[C@@H](Cc1ccccc1)C(=O)N[C@@H](Cc1ccccc1)C(=O)NCC(=O)N[C@@H](CCC(N)=O)C(=O)NCC(=O)NCC(=O)N[C@@H](C)C(N)=O [FeoB OL3 peptide] (Ac-GAFFGQGGA-NH2)
solvents in which solubility was identified [2]: ammonia water and acetic acid
solubility in common solvents [2]: not water, DMSO, methanol, isopropanol or acetonitrile soluble

CSCC[C@H](NC(=O)CNC(=O)[C@H](CCCCN)NC(=O)CNC(=O)[C@H](C)NC(=O)[C@H](CCCCN)NC(=O)[C@H](C)NC(C)=O)C(=O)N[C@@H](Cc1c[nH]cn1)C(=O)NCC(=O)NCC(=O)N[C@H](C(=O)N1CCC[C@H]1C(=O)NCC(=O)NCC(N)=O)C(C)C [N-80/C-25, reference compound] (Ac-AKAGKGMHGGVPGG-NH2)
effect on exogenous Fe^2+ uptake (Fe^2+ uptake by PA14): partially inhibitory
effect on ^14C-spermidine uptake [3]: also inhibitory
membrane disruption (SYTOX Orange uptake) (P. aeruginosa PA14 [4]): not membrane disruptive

NCCCCN [Putrescine]
protection of PA14 against 5 μM N-104 killing (P. aeruginosa PA14 [5]): did not offer the same benefit
toxicity to PA14 (P. aeruginosa PA14 [5]; 100-2000 µM polyamine): nor was toxic at high concentrations

CC1(C)S[C@@H]2[C@H](NC(=O)[C@H](N)c3ccccc3)C(=O)N2[C@H]1C(=O)O [ampicillin]
bacterial metabolic activity (Alamar Blue) (wild-type E. coli K-12): inhibitory

NCCCCNCCCN [spermidine]
protection of PA14 against 5 μM N-104 killing (P. aeruginosa PA14 [5]): increasingly protected
concentration at which toxic to PA14 (P. aeruginosa PA14 [5]; 100-2000 µM polyamine): exceeding 100 μM

JaneliaFluor-CAQKLLKKFSLLKPWA [JanFl-N-104, Cys(N)-N-104 conjugated to Janelia Fluor 549 maleimide]
effect of tagging on N-104 activity in CFU assay (P. aeruginosa PA14 [6]): partially affected
cellular staining pattern (P. aeruginosa PA14 [7]): peripheral internal ring

JaneliaFluor-CEDASSDSTGADPAQEAGTSKPNEE [JanFl-C-95, Cys(N)-C-95 conjugated to Janelia Fluor 549 maleimide, reference compound]
cellular staining pattern (P. aeruginosa PA14 [7]): lacked staining
